We go through 8 compounds from PubChem BioAssay (NCI).

Values joined by “and” are separate entries in the source; they are usually repeats but may differ in a detail not shown here. Equal values may be shown once.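 In this assay, cells in 96-well plates receive the compound at five concentrations for 48 hours. Endpoints are linearly interpolated between the surrounding concentrations. Here, GI50 denotes the concentration required for 50% inhibition of growth. At the TGI there is no net growth.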

Some test systems named below: DU-145 prostate; HT29 colon; LOX IMVI melanoma; MDA-MB-435; NCI/ADR-RES ovarian; OVCAR-3 ovarian; OVCAR-4 ovarian; RPMI-8226 leukemia; SF-539 CNS; SW-620 colon.
What all share (experiment): inhibition of tumour cell growth, NCI panel, 48 h

With `O=C(O)CC(Cc1ccc2c(c1)OCO2)C(=O)O` (configuration not stated), the TGI in the assay with DU-145 prostate, in the assay with HT29 colon, with LOX IMVI melanoma, in the assay on MDA-MB-435, in the assay on NCI/ADR-RES ovarian and in the assay with OVCAR-3 ovarian was over 100 µM each time. The TGI with OVCAR-4 ovarian, with RPMI-8226 leukemia, with SF-539 CNS and in the assay on SW-620 colon was over 100 µM throughout.

`Nc1nc(-n2cccn2)nc(-n2cccn2)c1Br`: the GI50 in the assay on DU-145 prostate, with HT29 colon, with LOX IMVI melanoma, with MDA-MB-435, in the assay on NCI/ADR-RES ovarian and in the assay on OVCAR-3 ovarian was over 100 µM in each case. The GI50 in the assay on OVCAR-4 ovarian, with RPMI-8226 leukemia, in the assay with SF-539 CNS and in the assay with SW-620 colon was over 100 µM throughout. The TGI with DU-145 prostate, with HT29 colon, in the assay on LOX IMVI melanoma, in the assay with MDA-MB-435, in the assay with NCI/ADR-RES ovarian and with OVCAR-3 ovarian was over 100 µM each time. The TGI with OVCAR-4 ovarian, in the assay on RPMI-8226 leukemia, with SF-539 CNS and with SW-620 colon was over 100 µM in each case.

With `CCCCCCC(C)CC(CCCCCC)NCCOC(=O)c1ccc([N+](=O)[O-])cc1` (configuration not stated), the TGI in the assay with DU-145 prostate is 30.1 µM and 25.6 µM; in the assay with HT29 colon, 21.4 µM and 19 µM; in the assay with LOX IMVI melanoma it was 24.7 µM and 19.5 µM; in the assay on MDA-MB-435, 24.9 µM and 20.1 µM; in the assay on NCI/ADR-RES ovarian, 58.8 µM and 32.1 µM; in the assay on OVCAR-3 ovarian, 23.6 µM and 17.5 µM. The TGI in the assay on OVCAR-4 ovarian was 26.5 µM and 26.9 µM; with RPMI-8226 leukemia it was 24 µM and 30.2 µM; in the assay on SF-539 CNS, 30.1 µM and 27 µM; with SW-620 colon, 28.8 µM and 28.5 µM. The GI50 in the assay with MDA-MB-435 is 11.6 µM and 5.17 µM; with OVCAR-3 ovarian it was 7.59 µM and 2.95 µM.

As for `C[C@]12CC[C@H]3[C@@H](CC=C4C[C@@H](O)CC[C@@]43C)[C@@H]1C/C(=C\c1cccc(OCCN3CCOCC3)c1)[C@@H]2O`, the GI50 was over 100 µM in the assay with DU-145 prostate; 7.36 µM in the assay on HT29 colon; over 100 µM with LOX IMVI melanoma; 85.1 µM in the assay with MDA-MB-435; 74.1 µM in the assay on NCI/ADR-RES ovarian; over 100 µM in the assay with OVCAR-3 ovarian. Moreover, the GI50 in the assay with OVCAR-4 ovarian is over 100 µM; with RPMI-8226 leukemia it was 7.83 µM; with SF-539 CNS, over 100 µM; with SW-620 colon it was 28.3 µM. Besides, the TGI in the assay on DU-145 prostate, with HT29 colon, in the assay on LOX IMVI melanoma, in the assay with MDA-MB-435, in the assay with NCI/ADR-RES ovarian and in the assay with OVCAR-3 ovarian was over 100 µM each time. For the same compound, the TGI in the assay on OVCAR-4 ovarian, with RPMI-8226 leukemia, with SF-539 CNS and with SW-620 colon was over 100 µM each time.

As to `O=C(CNC(=O)c1cccc2ccccc12)Nc1ccccc1Oc1cccc(O)c1`, the GI50 in the assay with DU-145 prostate was 9.47 µM; in the assay with HT29 colon it was 21.4 µM; in the assay on LOX IMVI melanoma it was 15 µM; in the assay on MDA-MB-435, 0.755 µM; in the assay on NCI/ADR-RES ovarian, 7.94 µM; in the assay with OVCAR-3 ovarian, 1.5 µM. Also, the GI50 in the assay on OVCAR-4 ovarian is over 25 µM; in the assay on RPMI-8226 leukemia it was 8.04 µM; in the assay on SF-539 CNS it was 4.06 µM; in the assay on SW-620 colon, 3.12 µM. Also, the TGI in the assay with DU-145 prostate is over 25 µM; in the assay with HT29 colon, over 25 µM; in the assay on LOX IMVI melanoma it was over 25 µM; in the assay on MDA-MB-435, 3.07 µM; in the assay on NCI/ADR-RES ovarian, over 25 µM; with OVCAR-3 ovarian, over 25 µM. Also, the TGI is over 25 µM in the assay with OVCAR-4 ovarian, over 25 µM in the assay on RPMI-8226 leukemia, 13.8 µM with SF-539 CNS and over 25 µM in the assay on SW-620 colon.

With `COc1nccc(-c2c(-c3ccc(F)cc3)ncn2C2CCC(O)CC2)n1` (configuration not stated), the GI50 was 72.8 µM in the assay with DU-145 prostate; 42.6 µM with HT29 colon; over 92.9 µM in the assay with LOX IMVI melanoma; 54.3 µM with MDA-MB-435; over 100 µM with NCI/ADR-RES ovarian; over 82 µM in the assay on OVCAR-3 ovarian. In addition, the GI50 is over 65.3 µM with OVCAR-4 ovarian, over 70.3 µM with RPMI-8226 leukemia, over 100 µM in the assay with SF-539 CNS and over 70.8 µM with SW-620 colon. Moreover, the TGI in the assay on DU-145 prostate, in the assay with HT29 colon, in the assay with LOX IMVI melanoma, with MDA-MB-435, in the assay with NCI/ADR-RES ovarian and in the assay with OVCAR-3 ovarian was over 100 µM each time. Besides, the TGI in the assay with OVCAR-4 ovarian, with RPMI-8226 leukemia, in the assay on SF-539 CNS and in the assay with SW-620 colon was over 100 µM in each case.

Consider `FC(F)(F)c1ccc2c(c1)N(CCCN1CCN(C3CC3)CC1)c1ccccc1S2`, for which the GI50 in the assay with DU-145 prostate is 13.8 µM; with HT29 colon it was 3.48 µM; in the assay on LOX IMVI melanoma, 13.7 µM; in the assay on MDA-MB-435, 12.2 µM; in the assay on NCI/ADR-RES ovarian, 10.3 µM; in the assay on OVCAR-3 ovarian, 7.11 µM. The GI50 was 11.1 µM with OVCAR-4 ovarian, 6.18 µM with RPMI-8226 leukemia, 14 µM with SF-539 CNS and 4.42 µM with SW-620 colon. Moreover, the TGI stood at 28.6 µM in the assay on DU-145 prostate; 13.8 µM in the assay on HT29 colon; 28.3 µM in the assay with LOX IMVI melanoma; 27.6 µM with MDA-MB-435; 23.1 µM in the assay with NCI/ADR-RES ovarian; 20.3 µM in the assay with OVCAR-3 ovarian. Besides, the TGI worked out at 23.7 µM with OVCAR-4 ovarian, 25.8 µM in the assay on RPMI-8226 leukemia, 29.5 µM in the assay with SF-539 CNS and 18.1 µM with SW-620 colon.

Turning to `Nc1cc(N)c2nc(-c3ccccc3)c(Nc3ccc(F)cc3)nc2c1`, the GI50 with DU-145 prostate was 12 µM; in the assay with HT29 colon, 18.6 µM; with LOX IMVI melanoma, 4.81 µM; in the assay with MDA-MB-435, 7.34 µM; in the assay on NCI/ADR-RES ovarian it was 23.8 µM; in the assay on OVCAR-3 ovarian, 4.66 µM. Moreover, the GI50 in the assay with OVCAR-4 ovarian was 13.4 µM; in the assay with RPMI-8226 leukemia it was 4.64 µM; with SF-539 CNS, 11 µM; with SW-620 colon it was 13.6 µM. In addition, the TGI in the assay with DU-145 prostate was 28.3 µM; with HT29 colon it was 35.3 µM; in the assay with LOX IMVI melanoma, 18 µM; in the assay with MDA-MB-435, 20.8 µM; in the assay with NCI/ADR-RES ovarian, 57.5 µM; in the assay on OVCAR-3 ovarian it was 17.8 µM. Moreover, the TGI with OVCAR-4 ovarian worked out at 48.8 µM; in the assay on RPMI-8226 leukemia, 34.6 µM; in the assay on SF-539 CNS, 24.6 µM; in the assay on SW-620 colon it was 39.2 µM.
